The source made the active and inactive calls.
Assays:
NCI-H460 [1] = experiment: Inhibition of colony formation in human H460 cells under detachment conditions assessed as reduction in size of colonies at 0.1 to 0.5 uM after 14 days by microscopic method; type: functional, cell-based
NCI-H23 [2] = experiment: Induction of apoptosis in human H23 cells under detachment conditions assessed as late apoptotic cells at 0.5 uM after 24 hrs by Annexin V-FITC/propidium iodide staining-based flow cytometric analysis (reference value: 2.82%); type: functional
NCI-H460 [3] = experiment: Antiproliferative activity against human H460 cells assessed as reduction in cell viability at 0.05 to 0.5 uM after 24 hrs by MTT assay; type: functional, cell-based
NCI-H23 [4] = experiment: Induction of anoikis in human H23 cells under detachment conditions assessed as reduction in cell viability at 0.05 uM up to 24 hrs by XTT assay; type: functional, cell-based
NCI-H460 [5] = experiment: Induction of apoptosis in human H460 cells at 1 uM after 24 hrs by Hoechst 33342/propidium iodide staining based fluorescent microscopic method; type: functional, cell-based
NCI-H23 [6] = experiment: Inhibition of epithelial-mesenchymal transition in human H23 cells harboring with p53 mutant under detachment conditions assessed as increase in E-cadherin protein level 0.05 to 0.5 uM after 12 hrs by Western blot analysis; type: functional, cell-based
NCI-H460 [7] = experiment: Inhibition of epithelial-mesenchymal transition in human H460 cells under detachment conditions assessed as decrease in snail protein level 0.05 to 0.5 uM after 12 hrs by Western blot analysis; type: functional, cell-based
NCI-H23 [8] = experiment: Induction of anoikis in human H23 cells harboring with p53 mutant under detachment conditions assessed as effect on P53 level at 0.05 to 0.5 uM after 12 hrs by Western blot analysis; type: functional, cell-based
NCI-H460 [9] = experiment: Inhibition of colony formation in human H460 cells under detachment conditions assessed as reduction in number of colonies at 0.1 to 0.5 uM after 14 days by microscopic method; type: functional, cell-based
Homo sapiens = species on record: Homo sapiens; experiment: Inhibition of ERK phosphorylation in human H23 cells harboring with p53 mutant under detachment conditions at 0.05 to 0.5 uM after 12 hrs by Western blot analysis; type: cell-based
NCI-H23 [10] = experiment: Induction of anoikis in human H23 cells harboring with p53 mutant under detachment conditions assessed as decrease in MCL-1 level at 0.05 to 0.5 uM after 12 hrs by Western blot analysis; type: functional, cell-based
NCI-H460 [11] = experiment: Inhibition of epithelial-mesenchymal transition in human H460 cells under detachment conditions assessed as increase in claudin-1 protein level 0.05 to 0.5 uM after 12 hrs by Western blot analysis; type: functional, cell-based
[12] = biological target: Serine/threonine-protein kinase AKT (Homo sapiens) (UniProt P31751+Q9Y243+P31749); experiment: Inhibition of AKT phosphorylation in human H460 cells under detachment conditions at 0.05 to 0.5 uM after 12 hrs by Western blot analysis; type: cell-based
NCI-H460 [13] = experiment: Induction of apoptosis in human H460 cells under detachment conditions assessed as accumulation of necrotic cells at 0.05 to 0.5 uM after 24 hrs by Hoechst 33342/propidium iodide staining based fluorescent microscopic method; type: functional, cell-based
NCI-H460 [14] = experiment: Effect on total AKT protein level in human H460 cells under detachment conditions at 0.05 to 0.5 uM after 12 hrs by Western blot analysis; type: ADME, cell-based; settings: nci-h460, 12 h
NCI-H292 [15] = experiment: Induction of apoptosis in human NCI-H292 cells under detachment conditions assessed as late apoptotic cells at 0.5 uM after 24 hrs by Annexin V-FITC/propidium iodide staining-based flow cytometric analysis (reference value: 28.21%); type: functional
NCI-H460 [16] = experiment: Down regulation of caveolin-1 human H460 cells under detachment conditions at 0.05 to 0.5 uM after 12 hrs by Western blot analysis; type: functional, cell-based
NCI-H460 [17] = experiment: Induction of anoikis in human H460 cells […] under detachment conditions assessed as effect on P53 level at 0.05 to 0.5 uM after 12 hrs by Western blot analysis; type: functional, cell-based
NCI-H292 [18] = experiment: Inhibition of colony formation in human NCI-H292 cells under detachment conditions assessed as reduction in number of colonies at 0.1 to 0.5 uM after 14 days by microscopic method; type: functional, cell-based
NCI-H460 [19] = experiment: Inhibition of epithelial-mesenchymal transition in human H460 cells under detachment conditions assessed as increase in E-cadherin protein level 0.05 to 0.5 uM after 12 hrs by Western blot analysis; type: functional, cell-based
NCI-H460 [20] = experiment: Induction of anoikis in human H460 cells under detachment conditions at 0.05 to 0.5 uM after 24 hrs by Hoechst 33342/propidium iodide staining based fluorescent microscopic method; type: functional, cell-based
NCI-H292 [21] = experiment: Antiproliferative activity against human NCI-H292 cells assessed as reduction in cell viability at 0.05 to 0.5 uM; type: functional, cell-based
NCI-H460 [22] = experiment: Induction of apoptosis in human H460 cells under detachment conditions at 0.05 to 0.5 uM after 24 hrs by Hoechst 33342/propidium iodide staining based fluorescent microscopic method; type: functional, cell-based
NCI-H23 [23] = experiment: Induction of apoptosis in human H23 cells under detachment conditions assessed as viable cells at 0.5 uM after 24 hrs by Annexin V-FITC/propidium iodide staining-based flow cytometric analysis (reference value: 69.96%); type: functional; settings: NCI-H23, 24 h, read-out: Activity
NCI-H460 [24] = experiment: Antiproliferative activity against human H460 cells under detachment conditions assessed as reduction in cell viability at 0.1 to 0.5 uM after 3 hrs by XTT assay; type: functional, cell-based
NCI-H292 [25] = experiment: Induction of apoptosis in human NCI-H292 cells under detachment conditions assessed as early apoptotic cells at 0.5 uM after 24 hrs by Annexin V-FITC/propidium iodide staining-based flow cytometric analysis (reference value: 29.96%); type: functional
NCI-H460 [26] = experiment: Induction of anoikis in human H460 cells under detachment conditions assessed as decrease in BCL-2 level at 0.1 to 0.5 uM after 12 hrs by Western blot analysis; type: functional, cell-based
NCI-H23 [27] = experiment: Inhibition of epithelial-mesenchymal transition in human H23 cells harboring with p53 mutant under detachment conditions assessed as increase in claudin-1 protein level 0.05 to 0.5 uM after 12 hrs by Western blot analysis; type: functional, cell-based
NCI-H23 [28] = experiment: Inhibition of colony formation in human H23 cells under detachment conditions assessed as reduction in size of colonies at 0.1 to 0.5 uM after 14 days by microscopic method; type: functional, cell-based
NCI-H23 [29] = experiment: Inhibition of colony formation in human H23 cells under detachment conditions assessed as reduction in number of colonies at 0.1 to 0.5 uM after 14 days by microscopic method; type: functional, cell-based

Chain of Serine/threonine-protein kinase AKT (Homo sapiens) (P31749 whole entry, looked up): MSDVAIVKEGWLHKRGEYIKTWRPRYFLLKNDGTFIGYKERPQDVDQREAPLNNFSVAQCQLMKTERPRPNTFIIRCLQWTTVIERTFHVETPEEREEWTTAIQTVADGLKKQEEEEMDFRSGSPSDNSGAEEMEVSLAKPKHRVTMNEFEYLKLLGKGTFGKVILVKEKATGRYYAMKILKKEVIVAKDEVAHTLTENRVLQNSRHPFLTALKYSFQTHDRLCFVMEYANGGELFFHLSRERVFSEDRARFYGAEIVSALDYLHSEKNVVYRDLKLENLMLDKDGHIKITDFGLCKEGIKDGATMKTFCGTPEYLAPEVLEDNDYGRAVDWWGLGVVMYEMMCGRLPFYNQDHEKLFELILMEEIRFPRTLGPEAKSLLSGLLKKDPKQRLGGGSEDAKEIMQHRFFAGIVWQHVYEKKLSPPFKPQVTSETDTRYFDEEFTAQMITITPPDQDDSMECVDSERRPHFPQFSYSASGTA
Chain of Serine/threonine-protein kinase AKT (Homo sapiens) (P31751 whole entry, looked up): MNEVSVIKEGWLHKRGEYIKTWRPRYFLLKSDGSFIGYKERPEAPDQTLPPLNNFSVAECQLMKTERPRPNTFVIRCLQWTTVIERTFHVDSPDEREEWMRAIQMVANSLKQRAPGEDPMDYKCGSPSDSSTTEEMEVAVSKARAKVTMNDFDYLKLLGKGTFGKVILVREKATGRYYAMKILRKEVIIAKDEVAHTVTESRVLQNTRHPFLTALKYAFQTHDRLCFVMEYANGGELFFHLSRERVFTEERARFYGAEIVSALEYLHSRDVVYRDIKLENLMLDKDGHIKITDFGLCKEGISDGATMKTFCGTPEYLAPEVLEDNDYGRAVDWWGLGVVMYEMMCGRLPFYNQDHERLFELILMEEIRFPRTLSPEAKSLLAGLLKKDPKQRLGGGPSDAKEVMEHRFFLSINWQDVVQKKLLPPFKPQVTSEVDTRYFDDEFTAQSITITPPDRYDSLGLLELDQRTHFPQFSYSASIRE
Chain of Serine/threonine-protein kinase AKT (Homo sapiens) (Q9Y243 whole entry, looked up): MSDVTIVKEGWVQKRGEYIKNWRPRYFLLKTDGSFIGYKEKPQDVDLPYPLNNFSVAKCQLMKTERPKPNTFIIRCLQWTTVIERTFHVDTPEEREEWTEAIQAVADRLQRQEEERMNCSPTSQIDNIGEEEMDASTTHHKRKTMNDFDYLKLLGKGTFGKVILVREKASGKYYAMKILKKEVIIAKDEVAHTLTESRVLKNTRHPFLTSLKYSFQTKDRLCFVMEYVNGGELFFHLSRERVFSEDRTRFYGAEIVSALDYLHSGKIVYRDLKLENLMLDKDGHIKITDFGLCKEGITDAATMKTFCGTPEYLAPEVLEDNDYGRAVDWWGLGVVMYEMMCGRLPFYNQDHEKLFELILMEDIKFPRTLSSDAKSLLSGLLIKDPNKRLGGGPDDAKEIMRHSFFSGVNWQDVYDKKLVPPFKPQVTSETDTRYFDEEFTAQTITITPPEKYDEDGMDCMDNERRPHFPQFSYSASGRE

COC1=C(C)C(=O)C2=C(C1=O)[C@@H]1[C@@H]3CC4=C(C(=O)C(OC)=C(C)C4=O)[C@H](CO)N3[C@@H](C#N)[C@H](C2)N1C [JOURNNAMYCIN A]
45.68%: Activity (NCI-H292 [25])
44.6%: viability at 0.5 µM (NCI-H23 [23])
28.13%: Activity (NCI-H292 [15])
inactive: Activity (NCI-H460 [3]) | Activity (NCI-H23 [8]) | Activity (NCI-H460 [13]) | Activity (NCI-H460 [17]) | Activity (NCI-H292 [21])
active: inhibition (NCI-H460 [1]) | Activity (NCI-H23 [4]) | Activity (NCI-H460 [5]) | inhibition (NCI-H23 [6]) | inhibition (NCI-H460 [7]) | inhibition (NCI-H460 [9]) | inhibition (Homo sapiens) | Activity (NCI-H23 [10]) | inhibition (NCI-H460 [11]) | inhibition [12] | Activity (NCI-H460 [16]) | inhibition (NCI-H292 [18]) | inhibition (NCI-H460 [19]) | Activity (NCI-H460 [20]) | Activity (NCI-H460 [22]) | Activity (NCI-H460 [24]) | Activity (NCI-H460 [26]) | inhibition (NCI-H23 [27]) | inhibition (NCI-H23 [28]) | inhibition (NCI-H23 [29])
Non-Toxic: Activity (NCI-H460 [14])
17.1%: Activity (NCI-H23 [2])

Reference: ChEMBL document CHEMBL4334449, “Jorunnamycin A from Xestospongia sp. Suppresses Epithelial to Mesenchymal Transition and Sensitizes Anoikis in Human Lung Cancer Cells” (J Nat Prod, 2019)
